The values that follow come from patent US20260263418A1, “AGENTS FOR ENHANCING DOPAMINE RELEASE, IMPROVING MOTOR CONTROL FUNCTION, IMPROVING MOTOR LEARNING FUNCTION AND IMPROVING ACTIVITY MOTIVATION” (MEIJI CO., LTD., priority 2023, published 2026).

The experiment deals with PC12 cells. The experiment in a line: Dopamine release from PC12 cells after dipeptide addition (LC-MS/MS of supernatant). The format is cell-based. The settings on record: 6 hours; for Change in dopamine concentration compared to the non-stimulated group / Dopamine concentration after stimulation, Mean ± Standard deviation / Percentage relative to non-stimulated group: 1 mM dipeptide; for Change in dopamine concentration compared to the non-stimulated group: Student's t-test, significance level 5%; for Dopamine concentration after stimulation, Mean ± Standard deviation: 3 wells; for Dopamine concentration after stimulation, Mean ± Standard deviation / Dopamine concentration after stimulation: 37° C., supernatant; for Percentage relative to non-stimulated group: dopamine concentration, non-stimulated group = 100; for Dopamine concentration after stimulation: individual wells, 1 mM dipeptide in medium. Here is the method:
PC12 cells were seeded in a 96-well plate at a cell count of 2×10^4 cells/well using DMEM containing 10% by volume of HS (Horse Serum), 10% by volume of FBS (Fetal Bovine Serum), 100 units/mL of penicillin and 100 μg/mL of streptomycin. The cells were cultured at 5% CO2 by volume and 37° C. The cells were cultured for 3 to 5 days to ensure that they were confluent, and then used for experiments.
The culture medium was removed from PC12 cells, which were washed twice with PBS (Phosphate Buffered Saline). The wells of the 96-well plate were divided into 5 groups: non-stimulated group (5 wells), WF administration group (3 wells), WH administration group (3 wells), WM administration group (3 wells) and WR administration group (3 wells). The WR administration group corresponds to Inventive Example, and the non-stimulated group, WF administration group, WH administration group and WM administration group correspond to Comparative Examples.
DMSO (Dimethyl Sulfoxide) was added to the same medium as the medium used to culture PC12 cells, thereby preparing a medium containing 1% by […] of DMSO. Dipeptide WF was added to the same medium as the medium used to culture PC12 cells, thereby preparing a medium containing 1 mM dipeptide WF. In the same way, a medium containing 1 mM dipeptide WH, a medium containing 1 mM dipeptide WM and a medium containing 1 mM dipeptide WR were prepared. The medium containing 1% by volume of DMSO (Dimethyl Sulfoxide) was added to the non-stimulated group, the medium containing 1 mM dipeptide WF was added to the WF administration group, the medium containing 1 mM dipeptide WH was added to the WH administration group, the medium containing 1 mM dipeptide WM was added to the WM administration group, and the medium containing 1 mM dipeptide WR was added to the WR administration group. These groups were incubated at 37° C. for 6 hours. After the incubation, supernatant of each well was collected.
Each supernatant was transferred onto ice. To each supernatant, 25 μL of 2M perchloric acid was added for protein removal, and after 10 minutes, 50 μL of 1M sodium acetate was added for neutralization. After 15 minutes, centrifugation was performed at 4° C. and 20000 G for 20 minutes. 100 μL of each supernatant was collected, and after added with 10 μL of 2 mM 3,4-dihydroxybenzylamine (DHBA) as an internal standard, it was passed through a chromatodisk to obtain a sample. The obtained sample was used for liquid chromatography-tandem mass spectrometry (LC-MS/MS).
LC-MS/MS was performed using a Triple TOF 6600+ system manufactured by SCIEX under the following measurement conditions. A calibration curve was prepared using pure products, and after correcting the peak area of dopamine with the peak area of the internal standard (DHBA), the dopamine concentration (nM) in each sample was calculated from the calibration curve. • Equipment: Triple TOF 6600+ System (SCIEX, Massachusetts, USA) • Column: Inertsil (registered trademark) ODS-4 (GL Sciences, Tokyo, Japan) • Eluent A: 0.1% aqueous solution of formic acid • Eluent B: 0.1% methanol solution of formic acid • Gradient conditions: As listed in Table 1
Data are presented as mean±standard deviation. For statistical processing, Student's t-test was used for comparisons between the non-stimulated group and each administration group. The significance level was set at 5%.

“And” between values parts separate entries of the source, which are not always exact repeats. Equal entries are not always repeated. Peptide text beside a SMILES is read from it.

On to `N=C(N)NCCC[C@H](NC(=O)[C@@H](N)Cc1c[nH]c2ccccc12)C(=O)O` [WR, tryptophanylarginine] (H-Trp-Arg-OH), for which the “Change in dopamine concentration compared to the non-stimulated group” value (“Change … to the non-stimulated group” below) is reported as “significant increase in dopamine concentration”; the “Dopamine concentration after stimulation, Mean ± Standard deviation” value is 36.24 ± 2.10 nM; the “Percentage relative to non-stimulated group” value came to 154.23%; the “Dopamine concentration after stimulation” value is 38.47 nM and 34.30 nM and 35.95 nM.
For `CSCC[C@H](NC(=O)[C@@H](N)Cc1c[nH]c2ccccc12)C(=O)O` [WM, tryptophanylmethionine] (H-Trp-Met-OH), the “Change … to the non-stimulated group” value is on record as “did not exhibit such a significant increase in dopamine concentration”; the “Dopamine concentration after stimulation, Mean ± Standard deviation” value is 24.57 ± 7.88 nM; the “Percentage relative to non-stimulated group” value worked out at 104.55%; the “Dopamine concentration after stimulation” value is 20.58 nM and 19.48 nM and 33.64 nM.
As to `N[C@@H](Cc1c[nH]c2ccccc12)C(=O)N[C@@H](Cc1ccccc1)C(=O)O` [WF, tryptophanylphenylalanine] (H-Trp-Phe-OH), the “Change … to the non-stimulated group” value is “did not exhibit such a significant increase in dopamine concentration”; the “Dopamine concentration after stimulation, Mean ± Standard deviation” value was found to be 19.56 ± 1.35 nM; the “Percentage relative to non-stimulated group” value worked out at 83.23%; the “Dopamine concentration after stimulation” value is 18.97 nM and 18.60 nM and 21.10 nM.
Turning to `N[C@@H](Cc1c[nH]c2ccccc12)C(=O)N[C@@H](Cc1c[nH]cn1)C(=O)O` [WH, tryptophanylhistidine] (H-Trp-His-OH), the “Change … to the non-stimulated group” value is listed as “did not exhibit such a significant increase in dopamine concentration”; the “Dopamine concentration after stimulation, Mean ± Standard deviation” value turned out to be 22.15 ± 4.13 nM; the “Percentage relative to non-stimulated group” value was determined as 94.26%; the “Dopamine concentration after stimulation” value was 26.89 nM and 19.36 nM and 20.20 nM.
